This note sets out measurements from patent US6110400A, “Fulgimide compound and use thereof and composition containing said compound” (Tokuyama Corporation, priority 1996, dated 2000).

This data set can be described thus: Color development of photochromic cured product (color density, maximum absorption wavelength), xenon lamp 120 seconds. The data set is classed as physicochemical. As to the method:
To 100 parts by weight of a polymerizable monomer consisting of 45 parts by weight of 4G, 45 parts by weight of 3PG, 9 parts by weight of GMA and 1 part by weight of MSD were added 0.05 part by weight of fulgimide compound I-(1) and 1 part by weight of Perbutyl ND as a polymerization catalyst. The solution was stirred thoroughly until the content thereof was completely dissolved. The solution was poured into a mold constituted by a glass plate and a gasket composed of an ethylene-vinyl acetate copolymer. The mold was placed in an air oven and the solution therein was subjected to polymerization at 35 to 90° C. for 20 hours. After the completion of the polymerization, the obtained photochromic cured product was removed from the glass plate of the mold.
The obtained photochromic cured product having a thickness of 2 mm was exposed to the light emitted from a xenon lamp, model L-2480 (300 W) SHL-100, manufactured by Hamamatsu Photonics, through Aero Mass Filter (a product of Corning Co.), at 20±1° C. for 120 seconds at a beam intensity (on the polymer surface of 365 nm=2.4 mW/cm^2 and 254 nm=24 μW/cm^2, whereby the cured product was allowed to develop a color. A value [ε (120 seconds)-ε (0 seconds)] was calculated and taken as the "color density" of the developed color. In the above expression, ε (120 seconds) is an absorbance at maximum absorption wavelength after 120 seconds of irradiation, and ε (0 seconds) is an absorbance at maximum absorption wavelength under no irradiation. […]
The procedure of Example 15 was repeated except that the composition of the polymerizable monomer was changed as shown in Table 2. […]

Where [1] appears, read: maximum absorption wavelength, monomers 3PG:45,4G:45,GMA:9,MSD:1.
Where [2] appears, read: monomers 3PG:45,4G:45,GMA:9,MSD:1, 0.05 part fulgimide, 2 mm, 20±1° C., 120 seconds irradiation.
The mark [3] stands for this setting: Ex. 29, monomers 4G:65,3G:15,GMA:9,MS:8,HEMA:2,MSD:1.
Setting [4] is: Ex. 30, monomers BR-MA:20,BzMA:25,3PG:37,GMA:9,MS:8,MSD:1.
Setting [5] is: Ex. 31, monomers BPE-100N:45,3G:37,GMA:9,MS:8,MSD:1.

For `CC1=C2C(=O)N(c3ccccc3)C(=O)C2C2(c3sc(-c4ccccc4)cc31)C1CC3CC(C1)CC2C3` (stereo not drawn) [Fulgimide compound A], under setting [1], the max is listed as 555 nm. Moreover, the Color density under setting [2] worked out at 0.51 Abs.

`CC1=C2C(=O)N(c3ccccc3C#N)C(=O)C2C2(c3sc(-c4ccccc4)cc31)C1CC3CC(C1)CC2C3` (stereo not drawn) [Fulgimide compound B, reference compound] had a max under setting [1] of 570 nm. The compound also showed a Color density under setting [2] of 0.64 Abs.

As for `CC1=C2C(=O)N(c3ccc(C#N)cc3)C(=O)C2C2(c3sc(-c4ccccc4)cc31)C1CC3CC(C1)CC2C3` (stereo not drawn) [Fulgimide compound C, reference compound], the max under setting [1] amounted to 570 nm. The compound further showed a Color density under setting [2] of 0.63 Abs.

In turn, `CC1=C2C(=O)N(CC#N)C(=O)C2C2(c3sc(-c4ccccc4)cc31)C1CC3CC(C1)CC2C3` (stereo not drawn) [Fulgimide compound D, reference compound] yielded a max under setting [1] of 568 nm. In addition, the Color density under setting [2] is 0.72 Abs.

In turn, `CC1=C2C(=O)N(C#N)C(=O)C2C2(c3sc(-c4ccccc4)cc31)C1CC3CC(C1)CC2C3` (stereo not drawn) [Fulgimide compound E, reference compound] yielded a max under setting [1] of 620 nm. For the same compound, the Color density under setting [2] was found to be 0.74 Abs.

Take `COc1ccc(-c2cc3c(s2)C2(C4CC5CC(C4)CC2C5)C2C(=O)N(CC#N)C(=O)C2=C3C)cc1` (stereo not drawn) [Fulgimide compound F, reference compound]: the max under setting [1] was determined as 578 nm. Further, the Color density under setting [2] turned out to be 0.78 Abs.

Consider `COc1ccc(-c2cc3c(s2)C2(C4CC5CC(C4)CC2C5)C2C(=O)N(c4cccc(C#N)c4)C(=O)C2=C3C)cc1` (stereo not drawn) [I-(1), N-(3'-cyanophenyl)-6,7-dihydro-4-methyl-2-(4'-methoxyphenyl)spirobenzothiophenecarboxyimide-7,2'-tricyclo[3.3.1.13,7]decane], for which the Color density is, setting by setting: under setting [3], 1.28 Abs; under setting [4], 1.29 Abs; under setting [5], 1.11 Abs; (Ex. 32, monomer 4G:100) 1.41 Abs; under setting [2], 1.33 Abs. Besides, the max reads like this: under setting [3], 584 nm; under setting [4], 590 nm; under setting [5], 590 nm; (Ex. 32, monomer 4G:100) 584 nm; under setting [1], 582 nm.

As to `CC1=C2C(=O)N(c3cccc(C#N)c3)C(=O)C2C2(c3sc(-c4ccccc4)cc31)C1CC3CC(C1)CC2C3` (stereo not drawn) [I-(2), N-(3'-cyanophenyl)-6,7-dihydro-4-methyl-2-phenylspirobenzothiophenecarboxyimide-7,2'-tricyclo[3.3.1.13,7]decane], the max under setting [1] turned out to be 570 nm. The compound further had a Color density under setting [2] of 1.25 Abs.

Regarding `N#Cc1cccc(N2C(=O)C3=C(C4CC4)c4ccsc4C4(C5CC6CC(C5)CC4C6)C3C2=O)c1` (stereo not drawn) [I-(3), N-(3'-cyanophenyl)-4-cyclopropyl-6,7-dihydrospirobenzothiophenecarboxyimide-7,2'-tricyclo[3.3.1.13,7]decane], the max under setting [1] is given as 560 nm. For the same compound, the Color density under setting [2] was found to be 1.42 Abs.

`CC1=C2C(=O)N(c3cccc(C(F)(F)F)c3)C(=O)C2C2(c3sc(-c4ccccc4)cc31)C1CC3CC(C1)CC2C3` (stereo not drawn) [I-(4), 6,7-dihydro-4-methyl-2-phenyl-N-(3'-trifluoromethylphenyl)spirobenzothiophenecarboxyimide-7,2'-tricyclo[3.3.1.13,7]decane] had a max under setting [1] of 566 nm. The Color density under setting [2] is given as 1.22 Abs.

Under setting [1], `CC1=C2C(=O)N(c3cccc([N+](=O)[O-])c3)C(=O)C2C2(c3sccc31)C1CC3CC(C1)CC2C3` (stereo not drawn) [I-(5), 6,7-dihydro-4-methyl-N-(3'-nitrophenyl)spirobenzothiophenecarboxyimide-7,2'-tricyclo[3.3.1.13,7]decane] had a max of 572 nm. In addition, the Color density under setting [2] is given as 1.36 Abs.

Take `CC(=O)c1cccc(N2C(=O)C3=C(C)c4cc(C)oc4C4(C5CCC4CC5)C3C2=O)c1` (stereo not drawn) [I-(6)]: the max under setting [1] is 525 nm. Moreover, the Color density under setting [2] turned out to be 1.06 Abs.

Take `CC1=C2C(=O)N(c3cccc(S(C)(=O)=O)c3)C(=O)C2C2(c3occc31)C1CCCC2CCC1` (stereo not drawn) [I-(7)]: under setting [1], the max is listed as 530 nm. The compound also displayed a Color density under setting [2] of 1.20 Abs.

Under setting [1], `CC1=C2C(=O)N(c3cc(C#N)cc(C#N)c3)C(=O)C2C2(c3sc(-c4ccccc4)cc31)C1CC3CC(C1)CC2C3` (stereo not drawn) [I-(8), N-(3',5'-dicyanophenyl)-6,7-dihydro-4-methyl-2-phenylspirobenzothiophenecarboxyimide-7,2'-tricyclo[3.3.1.13,7]decane] had a max of 582 nm. This compound registered a Color density under setting [2] of 1.58 Abs.

Under setting [1], `CC1=C2C(=O)N(c3cccc(F)c3)C(=O)C2C2(c3sc(C)cc31)C1CC3CC(C1)CC2C3` (stereo not drawn) [I-(9)] showed a max of 574 nm. Under setting [2], this compound yielded a Color density of 1.43 Abs.

In turn, `COC(=O)c1cccc(N2C(=O)C3=C(C)c4ccsc4C4(C5CC6CC(C5)CC4C6)C3C2=O)c1` (stereo not drawn) [I-(10)] had a max under setting [1] of 550 nm. Under setting [2], this compound showed a Color density of 1.14 Abs.

`CC1=C2C(=O)N(c3cccc(C(=O)c4ccccc4)c3)C(=O)C2C2(c3sccc31)C1CC3CC(C1)CC2C3` (stereo not drawn) [I-(11)]: the max under setting [1] was determined as 563 nm. Further, the Color density under setting [2] came to 1.18 Abs.

Turning to `CC1=C2C(=O)N(c3cccc(S(=O)O)c3)C(=O)C2C2(c3sccc31)C1CC3CC(C1)CC2C3` (stereo not drawn) [I-(12)], the max under setting [1] is 567 nm. The same compound yielded a Color density under setting [2] of 1.22 Abs.

`CC1=C2C(=O)N(c3cccc(S(=O)(=O)c4ccccc4)c3)C(=O)C2C2(c3sccc31)C1CC3CC(C1)CC2C3` (stereo not drawn) [I-(13)] gave a max under setting [1] of 564 nm. Moreover, the Color density under setting [2] is 1.25 Abs.

In turn, `CC1=C2C(=O)N(c3cccc(C(=O)Oc4ccccc4)c3)C(=O)C2C2(c3sccc31)C1CC3CC(C1)CC2C3` (stereo not drawn) [I-(14)] yielded a max under setting [1] of 562 nm. For the same compound, the Color density under setting [2] is reported as 1.12 Abs.
